Like-named read-outs stand apart in the source and are kept apart here.
Tests used:
[1] = test system: human primary lung cells; experiment: Toxicity in human primary lung cells; type: cell-based
[2] = test system: SARS-CoV-2; experiment: microbe, parasite or virus in culture; type: cell-based; conditions: for IC50: Severe acute respiratory syndrome coronavirus 2, A549-ACE2, 24 h, 24 h, read-out: IC50, SARS-CoV-2 immunostaining signal
[3] = test system: CHK1 phosphorylation (pCHK1); experiment: CHK1 phosphorylation in Vero E6 cells (western blot); type: cell-based
Protocol: Cells were lysed in 50 mM Tris pH 7.4, 1% NP-40, 0.25% sodium deoxycholate, 1 mM EDTA, 150 mM NaCl, 1 mM Na3VO4, […], 1mM PMSF, 2 mg ml^-1 aprotinin, 2 mg ml^-1 leupeptin and 0.7 mg ml^-1 pepstatin or Laemmli Sample Buffer (Bio Rad, Hercules, CA). Cell lysates were resolved by SDS-PAGE using 10% gradient gels and transferred to a 0.2 μm PVDF membrane. Subsequently, the membranes were blocked with 5% skim milk and 0.1% Tween-20 in 1x TBST (0.1% Tween-20) at room temperature for 1 hour. The membranes were then probed with respective monoclonal antibodies and detected by Thermo Scientific SuperSignal West Femto Maximum Sensitivity Substrate.

[4] = test system: SARS-CoV-2; experiment: SARS-CoV-2 replication kinetics in Vero E6 cells (RT-qPCR genome copies, western blot); type: cell-based; conditions: for viral genome and protein production: from 8 h onward
[5] = test system: SARS-CoV-1; experiment: microbe, parasite or virus in culture; type: cell-based; conditions: Severe acute respiratory syndrome coronavirus, Calu-3, read-out: IC50, SARS-CoV-1 viral titer
[6] = test system: SARS-CoV-2; experiment: microbe, parasite or virus in culture; type: cell-based
[7] = test system: ATR; set-up: method as in vendor Selleckchem; conditions: HT29 cells; ref vendor Selleckchem; read-out: IC50, ATR inhibition; cited from earlier work
[8] = test system: SARS-CoV-2; type: cell-based; conditions: 250 nM, Vero E6 cells, 48 h
[9] = test system: MERS-CoV; experiment: microbe, parasite or virus in culture; type: cell-based; conditions: Middle East respiratory syndrome-related coronavirus, Calu-3, read-out: IC50, MERS-CoV viral titer
[10] = test system: SARS-CoV-2; experiment: microbe, parasite or virus in culture; type: cell-based; conditions: Vero E6 cells; IFA; read-out: IC50, inhibition of SARS-CoV-2 infectivity
[11] = HeLa-ACE2 uninfected host cell cytotoxicity counter screen; type: cell-based; conditions: human, uninfected HeLa-ACE2 cells; read-out: median cytotoxic concentration (CC50)
Protocol: Compounds were acoustically transferred into 1,536-well μclear plates (Greiner Part. No. 789091). HeLa-ACE2 cells were maintained as described for the infection assay and seeded in the assay-ready plates at 400 cells/well in DMEM with 2% FBS and plates were incubated for 24 hours at 37°C 5% CO2. To assess cell viability, the Image-iT DEAD green reagent (Thermo Fisher) was used according to manufacturer instructions. Cells were fixed with 4% paraformaldehyde, and counterstained with DAPI.

[12] = test system: SARS-CoV-2; experiment: SARS-CoV-2 infection of HEK293-ACE2 cells (IFA); type: cell-based; conditions: 100 nM, 48 hpi
[13] = set-up: method as in earlier work; conditions: cancer setting, phases 1 and 2, ref Konstantinopoulos et al., 2020, Yap et al., Thomas et al., 2018; cited from earlier work
[14] = test system: SARS-CoV-2
[15] = test system: SARS-CoV-2; type: cell-based; conditions: hiPSC-CMs, 250 nM
[16] = test system: Calu-3 cells; experiment: Cell viability assay (MTT) in Calu-3 cells; type: cell-based, human
Protocol: Calu-3 and A549-ACE2 were seeded in 96-well plates with 3.5 × 10^5 cells/ml, 100 μL per well, for 24 h. The compounds to be tested or pure DMSO as […] control were serially diluted in CoV infection medium (DMEM, supplemented with 1 % L-glu, 1 % P/S and 2 % FBS) to obtain 5-fold of the desired final concentrations. The growth medium was removed from the cells and replaced with 80 μl/well of fresh infection medium. Subsequently, 20 μL of the diluted compounds were added in quadruplicates for each concentration (i.e., 5-fold dilution to reach the final concentrations). Cells were incubated for 48 h at 37°C (5% CO2, 96 % rH). At 48 h post treatment, cell viability was measured on a Tecan Safire 2 plate reader using the CellTiter 96® Non-Radioactive Cell Proliferation Assay (MTT) (Promega) according to manufacturer’s instructions.

[17] = test system: SARS-CoV-2; experiment: microbe, parasite or virus in culture; type: cell-based; conditions: Severe acute respiratory syndrome coronavirus 2, Calu-3 cells, read-out: IC50, SARS-CoV-2 viral titer
[18] = test system: IL6; experiment: IL6 gene expression in SARS-CoV-2-infected Vero E6 cells (RT-qPCR); type: cell-based
[19] = test system: hiPSC-CMs; experiment: Cardiomyocyte beating / in vitro cardiotoxicity in hiPSC-CMs; type: cell-based, human; conditions: hiPSC-CMs; 250 nM
Protocol: Thus, we used the human-induced pluripotent stem-cell-derived cardiomyocyte (hiPSC-CM) system for antiviral drug testing against SARS-CoV-2. […] Thus, this cardiomyocyte system is useful for antiviral drug testing against SARS-CoV-2. […] The inhibition of virus production by berzosertib was evaluated by quantifying the infectious virus (TCID50) in the supernatant at various time points (Figure 2B). […] Infection of cardiomyocytes with SARS-CoV-2 was confirmed by specific staining of cardiac troponin T (cTnT) and viral spike proteins (Figure 2E). Untreated SARS-CoV-2-infected cells had infection-mediated cell injury with disrupted troponin T fibers.

## CNCc1ccc(-c2cc(-c3nc(-c4ccc(S(=O)(=O)C(C)C)cc4)cnc3N)on2)cc1 [Berzosertib]
[1]
  concentration with detectable toxicity: > 50 µM
[2]
  combination effect (isobologram, Compusyn): synergistic
  IC50: 240 nM
[2]; A549-ACE2 cells
  selectivity index (SI): 204
[2]; A549-ACE2 cells, […]
  IC50: 220 ± 30 nM
[3]
  phosphorylation of CHK1: reduced
[4]; 2 hpi
  number of viral genome copies at 2 hpi (entry): not affected
[4]
  viral genome and protein production: inhibited
[4]; listed as berzosertib
  viral genome and protein production: significantly reduced
[5]
  IC50: 320 nM
[6]
  inhibition of SARS-CoV-2: effective
[6]; Severe acute respiratory syndrome coronavirus 2, human primary lung cells
  IC50: 40 nM
[7]
  IC50: 19 nM
[8]
  antiviral activity (prevention of viral CPE) in primary screen: antiviral activity
[9]
  IC50: 290 nM
[10]
  IC50: < 25 nM
[11]
  CC50 at 24 h: 3890 nM
[12]
  inhibition of virus replication: complete inhibition
[13]
  tolerability in oncology clinical studies: well tolerated
[14]; HeLa-ACE2 cells
  median effective dose (ED50), percentage of infected cells: 200 nM
[14]; SARS-CoV-2-infected HeLa-ACE2 cells
  total cells per well (cytotoxic effect at active concentrations): did not change
[15]
  virus production (infectious virus, TCID50, in supernatant): significantly reduced
[15]; cleaved caspase-3
  apoptotic cell death associated with viral infection: significantly reduced
[16]
  concentration with detectable toxicity: > 50 µM
[17]
  IC50: 480 nM
[18]
  viral-mediated induction of pro-inflammatory gene IL6: reduced
[19]
  in vitro cardiotoxicity: No in vitro cardiotoxicity

Reference: article PMC7969873 (Cell Reports, 2021)
